Results published in patent US9204653B2, “5-fluoro pyrimidine derivatives” (DOW AGROSCIENCES LLC, priority 2008, dated 2015).
Like-named read-outs stand apart in the source and are kept apart here.

Test system: Mycosphaerella graminicola; Anamorph: Septoria tritici; Bayer Code SEPTTR
Test: Leaf blotch of wheat, foliar fungicide treatment, one day protectant (1DP) or three day curative (3DC)
Format: in vivo, Septoria tritici on wheat plants (variety Yuma)
Settings: Zymoseptoria tritici, percent disease control rating
[1] = 24 h, one day protectant (1DP), read-out: SETTTR 1DP 25 ppm
[2] = 24 h, one day protectant (1DP), read-out: SEPTTR 1DP 100 ppm
[3] = 72 h, three day curative (3DC), read-out: SEPTTR 3DC 25 ppm
[4] = 72 h, three day curative (3DC), read-out: SEPTTR 3DC 100 ppm

CN(C)/C=N/c1nc(OC(=O)c2ccccc2F)ncc1F [Compound 58]
pest or weed control at 25 ppm [1]: 76 to 100% | pest or weed control at 100 ppm [2]: 76 to 100% | pest or weed control at 25 ppm [3]: 76 to 100% | pest or weed control at 100 ppm [4]: 76 to 100%

O=C(NCc1ccccc1)Nc1nc(OCc2ccc(F)cc2)ncc1F [Compound 59]
pest or weed control at 25 ppm [1]: 0 to 25% | pest or weed control at 100 ppm [2]: 0 to 25% | pest or weed control at 25 ppm [3]: 0 to 25% | pest or weed control at 100 ppm [4]: 26 to 50%

Nc1nc(OCc2ccc(F)c(C(F)(F)F)c2)ncc1F [Compound 60]
pest or weed control at 25 ppm [1]: 76 to 100% | pest or weed control at 100 ppm [2]: 76 to 100% | pest or weed control at 25 ppm [3]: 76 to 100% | pest or weed control at 100 ppm [4]: 76 to 100%

Cn1ccc(COc2ncc(F)c(NC(=O)NCc3ccccc3F)n2)n1 [Compound 64]
pest or weed control at 25 ppm [1]: 0 to 25% | pest or weed control at 100 ppm [2]: 0 to 25% | pest or weed control at 25 ppm [3]: 0 to 25% | pest or weed control at 100 ppm [4]: 26 to 50%

COc1ccc(/C=N/Nc2nc(OCc3cccc(OC)c3)ncc2F)cc1 [Compound 65]
pest or weed control at 25 ppm [1]: 26 to 50% | pest or weed control at 100 ppm [2]: 51 to 75% | pest or weed control at 25 ppm [3]: 26 to 50% | pest or weed control at 100 ppm [4]: 51 to 75%

CCOc1cccc(COc2ncc(F)c(N)n2)c1 [Compound 66]
pest or weed control at 25 ppm [1]: 76 to 100% | pest or weed control at 100 ppm [2]: 76 to 100% | pest or weed control at 25 ppm [3]: 76 to 100% | pest or weed control at 100 ppm [4]: 76 to 100%

C[C@@H](Oc1ncc(F)c(N)n1)c1ccc(Br)cc1 [Compound 70]
pest or weed control at 25 ppm [1]: 26 to 50% | pest or weed control at 100 ppm [2]: 76 to 100% | pest or weed control at 25 ppm [3]: 26 to 50% | pest or weed control at 100 ppm [4]: 76 to 100%

CCOC(=O)Nc1nc(OCc2ccccc2)ncc1F [Compound 71]
pest or weed control at 25 ppm [1]: 76 to 100% | pest or weed control at 100 ppm [2]: 76 to 100% | pest or weed control at 25 ppm [3]: 76 to 100% | pest or weed control at 100 ppm [4]: 76 to 100%

C/C(=N\Oc1ncc(F)c(N)n1)c1ccc(F)cc1 [Compound 72]
pest or weed control at 25 ppm [1]: 76 to 100% | pest or weed control at 100 ppm [2]: 76 to 100% | pest or weed control at 25 ppm [3]: 76 to 100% | pest or weed control at 100 ppm [4]: 76 to 100%

N#Cc1ccc(COc2ncc(F)c(N)n2)cc1 [Compound 74]
pest or weed control at 25 ppm [1]: 51 to 75% | pest or weed control at 100 ppm [2]: 76 to 100% | pest or weed control at 25 ppm [3]: 0 to 25% | pest or weed control at 100 ppm [4]: 0 to 25%

COc1ccc(COc2ncc(F)c(NC(=S)NCc3ccccc3F)n2)cc1F [Compound 75]
pest or weed control at 25 ppm [1]: 26 to 50% | pest or weed control at 100 ppm [2]: 76 to 100% | pest or weed control at 25 ppm [3]: 76 to 100% | pest or weed control at 100 ppm [4]: 76 to 100%

Cn1c(COc2ncc(F)c(N)n2)cc2sccc21 [Compound 76]
pest or weed control at 25 ppm [1]: 26 to 50% | pest or weed control at 100 ppm [2]: 26 to 50% | pest or weed control at 25 ppm [3]: 26 to 50% | pest or weed control at 100 ppm [4]: 26 to 50%

COc1cccc(COc2ncc(F)c(NN3CCN(C)CC3)n2)c1 [Compound 77]
pest or weed control at 25 ppm [1]: 0 to 25% | pest or weed control at 100 ppm [2]: 76 to 100% | pest or weed control at 25 ppm [3]: 26 to 50% | pest or weed control at 100 ppm [4]: 76 to 100%

Cc1cccc(COc2ncc(F)c(N)n2)n1 [Compound 78]
pest or weed control at 25 ppm [1]: 76 to 100% | pest or weed control at 100 ppm [2]: 76 to 100% | pest or weed control at 25 ppm [3]: 76 to 100% | pest or weed control at 100 ppm [4]: 76 to 100%

Cn1ccc(COc2ncc(F)c(NC(=O)Nc3ccccc3F)n2)n1 [Compound 81]
pest or weed control at 25 ppm [1]: 0 to 25% | pest or weed control at 100 ppm [2]: 0 to 25% | pest or weed control at 25 ppm [3]: 0 to 25% | pest or weed control at 100 ppm [4]: 0 to 25%

CC(Oc1ncc(F)c(N)n1)c1cccc(Oc2ccccc2)n1 (stereo not shown) [Compound 82]
pest or weed control at 25 ppm [1]: 26 to 50% | pest or weed control at 100 ppm [2]: 26 to 50% | pest or weed control at 25 ppm [3]: 0 to 25% | pest or weed control at 100 ppm [4]: 26 to 50%

CCCC(Oc1ncc(F)c(N)n1)c1ccc(F)cc1 (stereo not shown) [Compound 83]
pest or weed control at 25 ppm [1]: 76 to 100% | pest or weed control at 100 ppm [2]: 76 to 100% | pest or weed control at 25 ppm [3]: 76 to 100% | pest or weed control at 100 ppm [4]: 76 to 100%

COc1cccc(COc2ncc(F)c(NSc3ccccc3[N+](=O)[O-])n2)c1 [Compound 85]
pest or weed control at 25 ppm [1]: 26 to 50% | pest or weed control at 100 ppm [2]: 76 to 100% | pest or weed control at 25 ppm [3]: 76 to 100% | pest or weed control at 100 ppm [4]: 76 to 100%

COc1ccccc1COc1ncc(F)c(NC(=O)Cc2ccccc2)n1 [Compound 86]
pest or weed control at 25 ppm [1]: 26 to 50% | pest or weed control at 100 ppm [2]: 51 to 75% | pest or weed control at 25 ppm [3]: 0 to 25% | pest or weed control at 100 ppm [4]: 0 to 25%

CC(Oc1ncc(F)c(NCO)n1)c1ccc(F)cc1 (stereo not shown) [Compound 88]
pest or weed control at 25 ppm [1]: 26 to 50% | pest or weed control at 100 ppm [2]: 76 to 100% | pest or weed control at 25 ppm [3]: 26 to 50% | pest or weed control at 100 ppm [4]: 76 to 100%

CN(C)/C=N/c1nc(OS(=O)(=O)c2cccs2)ncc1F [Compound 89]
pest or weed control at 25 ppm [1]: 76 to 100% | pest or weed control at 100 ppm [2]: 76 to 100% | pest or weed control at 25 ppm [3]: 76 to 100% | pest or weed control at 100 ppm [4]: 76 to 100%

O=[N+]([O-])c1ccccc1SNc1nc(OCc2cc(Cl)cc(Cl)c2)ncc1F [Compound 90]
pest or weed control at 25 ppm [1]: 76 to 100% | pest or weed control at 100 ppm [2]: 76 to 100% | pest or weed control at 25 ppm [3]: 26 to 50% | pest or weed control at 100 ppm [4]: 51 to 75%

Nc1nc(OCc2cc(F)c(F)c(F)c2)ncc1F [Compound 93]
pest or weed control at 25 ppm [1]: 76 to 100% | pest or weed control at 100 ppm [2]: 76 to 100% | pest or weed control at 25 ppm [3]: 76 to 100% | pest or weed control at 100 ppm [4]: 76 to 100%

CCC(C)C(=O)Oc1ncc(F)c(/N=C/N(C)C)n1 (stereo not shown) [Compound 94]
pest or weed control at 25 ppm [1]: 76 to 100% | pest or weed control at 100 ppm [2]: 76 to 100% | pest or weed control at 25 ppm [3]: 76 to 100% | pest or weed control at 100 ppm [4]: 76 to 100%

CC(C)(C)Oc1ccc(COc2ncc(F)c(N)n2)cc1 [Compound 95]
pest or weed control at 25 ppm [1]: 76 to 100% | pest or weed control at 100 ppm [2]: 76 to 100% | pest or weed control at 25 ppm [3]: 76 to 100% | pest or weed control at 100 ppm [4]: 76 to 100%

CNC(=O)/C(=N/OC)c1ccccc1COc1ncc(F)c(N)n1 [Compound 96]
pest or weed control at 25 ppm [1]: 0 to 25% | pest or weed control at 100 ppm [2]: 0 to 25% | pest or weed control at 25 ppm [3]: 0 to 25% | pest or weed control at 100 ppm [4]: 0 to 25%

CCC(/C=N/Nc1nc(OCc2cccc(OC)c2)ncc1F)CC [Compound 97]
pest or weed control at 25 ppm [1]: 0 to 25% | pest or weed control at 100 ppm [2]: 51 to 75% | pest or weed control at 25 ppm [3]: 0 to 25% | pest or weed control at 100 ppm [4]: 0 to 25%

O=C(NCc1ccccc1F)Nc1nc(OCc2cccc(F)c2)ncc1F [Compound 98]
pest or weed control at 25 ppm [1]: 0 to 25% | pest or weed control at 100 ppm [2]: 0 to 25% | pest or weed control at 25 ppm [3]: 0 to 25% | pest or weed control at 100 ppm [4]: 0 to 25%

CCCCCCOc1ncc(F)c(NCO)n1 [Compound 99]
pest or weed control at 25 ppm [1]: 0 to 25% | pest or weed control at 100 ppm [2]: 76 to 100% | pest or weed control at 25 ppm [3]: 0 to 25% | pest or weed control at 100 ppm [4]: 51 to 75%

Nc1nc(SCc2ccc(F)cc2)ncc1F [Compound 100]
pest or weed control at 25 ppm [1]: 0 to 25% | pest or weed control at 100 ppm [2]: 0 to 25% | pest or weed control at 25 ppm [3]: 0 to 25% | pest or weed control at 100 ppm [4]: 0 to 25%

CC(C)(C)OC(=O)Nc1nc(OCc2ccc(F)cc2)ncc1F [Compound 101]
pest or weed control at 25 ppm [1]: 51 to 75% | pest or weed control at 100 ppm [2]: 51 to 75% | pest or weed control at 25 ppm [3]: 0 to 25% | pest or weed control at 100 ppm [4]: 0 to 25%

Cc1ccc(COc2ncc(F)c(N(N)c3ccccc3)n2)cc1 [Compound 102]
pest or weed control at 25 ppm [1]: 0 to 25% | pest or weed control at 100 ppm [2]: 0 to 25% | pest or weed control at 25 ppm [3]: 0 to 25% | pest or weed control at 100 ppm [4]: 26 to 50%

C[C@H](Oc1ncc(F)c(N)n1)c1ccc(Br)cc1 [Compound 103]
pest or weed control at 25 ppm [1]: 76 to 100% | pest or weed control at 100 ppm [2]: 76 to 100% | pest or weed control at 25 ppm [3]: 51 to 75% | pest or weed control at 100 ppm [4]: 76 to 100%

Nc1nc(OCc2nc3ccccc3s2)ncc1F [Compound 104]
pest or weed control at 25 ppm [1]: 76 to 100% | pest or weed control at 100 ppm [2]: 76 to 100% | pest or weed control at 25 ppm [3]: 76 to 100% | pest or weed control at 100 ppm [4]: 76 to 100%
